Assay results from patent US20260076975A1, “TPK AGONIST AND METHOD FOR USING SAME TO TREAT NEURODEGENERATIVE DISEASES” (SHANGHAI RAISING PHARMACEUTICAL CO., LTD., priority 2022, published 2026).
Like-named read-outs stand apart in the source and are kept apart here.

Molecular target: TPK enzyme (Homo sapiens, UniProt Q9H3S4)
Assay: TPK enzyme activity test (TDP formation from thiamine and ATP, HPLC detection)
Format: biochemical
Experimental: The purpose of this example was to test the promoting effect of compounds on TPK enzyme activity and evaluate the in vitro activity of the compounds based on EC50 and Emax.
1.1) The constant-temperature water-bath shaker was pre-heated half an hour in advance at a pre-heating temperature of 37° C.
1.2) The stock solution of the compound to be tested was taken out, allowed to thaw at room temperature, and then diluted to the required concentration.
1.3) The required reagents were placed on ice to thaw.
2.1) For each reaction system, TPK enzyme solution, Tris-HCl buffer solution, and ATP solution were added. The concentration of ATP used was 1-500 mM. The above three solutions were formulated into a homogeneous mixture.
2.2) The mixture of the above three solutions was dispensed into centrifuge tubes. Then, the compound at the required concentration was added to each centrifuge tube. Finally, thiamine solution (1-100 μM) was added. After the addition of the above system was completed, the centrifuge tubes were tightly capped, inserted into a floating board, and placed in the constant-temperature water-bath shaker that had been pre-heated to 37° C. for incubation for 0.5-2.0 hours.
2.3) After the incubation was completed, perchloric acid stop solution was added and mixed well. Samples were taken into 1.5 mL centrifuge tubes and stored at −20° C.
3.1) The samples stored at −20° C. were taken out, thawed at room temperature, and then subjected to derivatization treatment. The samples were placed in centrifuge tubes, a potassium ferricyanide derivatization reagent was added, and finally phosphoric acid stop solution was added to stop the reaction.
3.2) The derivatized samples were placed in sample vials for liquid chromatography analysis, and the contents of TDP/thiamine were detected by high performance liquid chromatography. TKP enzyme activity=TDP (nM)/mg protein/min.
The effects of the compounds of the present invention on TPK enzyme activity at different concentrations were determined according to the above procedures.

[1] = promoting effect on TPK enzyme activity, calculated with the effect of DMSO on TPK enzyme activity as 100%, read-out: Emax
[2] = promoting effect on TPK enzyme activity

Sequence of TPK enzyme (Q9H3S4 whole entry): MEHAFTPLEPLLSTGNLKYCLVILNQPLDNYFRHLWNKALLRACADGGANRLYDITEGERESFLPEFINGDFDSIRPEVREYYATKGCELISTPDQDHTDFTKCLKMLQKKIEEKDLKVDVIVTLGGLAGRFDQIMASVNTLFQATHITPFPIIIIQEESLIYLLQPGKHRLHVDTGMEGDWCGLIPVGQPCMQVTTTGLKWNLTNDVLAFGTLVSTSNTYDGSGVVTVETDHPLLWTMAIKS

SMILES | Emax [1] | EC50 [2] | Emax
CCC1Oc2cc(S(=O)(=O)N(C)CC(=O)NCc3ccc(Cl)cc3)c(C)cc2NC1=O (centres unmarked) [Compound 143] | 122% | – | –
CN(CC(=O)NCc1ccc(F)cc1)S(=O)(=O)c1ccc2[nH]c(=O)ccc2c1 [Compound 144] | 121% | – | –
CN(CC(=O)NCc1ccc(Cl)cc1)S(=O)(=O)c1ccc2[nH]c(=O)ccc2c1 [Compound 145] | 120% | – | –
O=C(CN1CCN(c2ccc(F)cc2)CC1)NC(=O)NCCc1c[nH]c2ccc(F)cc12 [Compound 146] | 175% | 1.34 µM | –
O=C(CCn1cnc2sccc2c1=O)N1CCN(c2cccc(C(F)(F)F)c2)CC1 [Compound 147] | 147% | – | –
Cc1cc(=O)oc2cc(OCC(=O)N3CCN(c4cccc(C(F)(F)F)c4)CC3)ccc12 [Compound 148] | 165% | 1.23 µM | –
Cc1ccc(Cl)cc1N1CCN(CCCNC(=O)C2COc3ccccc3C2)CC1 (centres unmarked) [Compound 149] | 182% | – | –
COc1cccc2cc(C(=O)N3CCN(c4cccc(C(F)(F)F)c4)CC3)c(=O)oc12 [Compound 150] | 212% | 0.139 µM | –
CCCc1cc(=O)n2nc(N3CCC(C(=O)NCc4ccc(CC)cc4)CC3)sc2n1 [Compound 151] | 155% | 3.36 µM | –
CC(CNC(=O)COc1ccc2c(c1)CCC(=O)N2)N1CCCC1 (centres unmarked) [Compound 152] | 161% | 9.63 µM | –
CC(C)C(CNC(=O)COc1ccc2c(c1)CCC(=O)N2)N1CCc2ccccc2C1 (centres unmarked) [Compound 153] | 201% | 7.86 µM | –
O=C1COc2ccc(C(=O)COC(=O)C=Cc3ccc(S(=O)(=O)N4CCCCCC4)cc3)cc2N1 [Compound 154] | 132% | – | –
O=C1COc2ccc(C(=O)CSCCSCC(=O)c3ccc4c(c3)NC(=O)CO4)cc2N1 [Compound 155] | 125% | – | –
CC(NC(=O)Nc1nncs1)c1ccc2c(c1)CCC(=O)N2 (centres unmarked) [Compound 156] | 120% | – | –
O=C1CCc2cc(S(=O)(=O)N3CCN(c4cccc(C(F)(F)F)c4)CC3)ccc2N1 [Compound 157] | 155% | 2.61 µM | –
CC(=O)N1CCCc2cc(C(=O)N3CCN(c4cccc(C(F)(F)F)c4)CC3)ccc21 [Compound 165, 1-(6-(4-(3-(trifluoromethyl)phenyl)piperazine-1-carbonyl)-3,4-dihydroquinolin-1(2H)-yl)ethan-1-one] | – | 9.8 µM | 148%
CC(=O)N1CCCc2cc(C(=O)N3CCN(c4cccc(Cl)c4Cl)CC3)ccc21 [Compound 166, 1-(6-(4-(2,3-dichlorophenyl)piperazine-1-carbonyl)-3,4-dihydroquinolin-1(2H)-yl)ethan-1-one] | – | 4.25 µM | 156%
CC(=O)N1CCCc2cc(C(=O)N3CCC(Cc4ccc(F)cc4)CC3)ccc21 [Compound 168, 1-(6-(4-(4-fluorobenzyl)piperidine-1-carbonyl)-3,4-dihydroquinolin-1(2H)-yl)ethan-1-one] | 151% | 5.43 µM | –
COc1ccc(C(=O)NCCC(=O)N2CCN(c3cccc(Cl)c3Cl)CC2)cc1OC [Compound 169, N-(3-(4-(2,3-dichlorophenyl)piperazin-1-yl)-3-oxopropyl)-3,4-dimethoxybenzamide] | – | 7.23 µM | 148%
COc1ccc(C(=O)NCCCC(=O)N2CCN(c3cccc(Cl)c3Cl)CC2)cc1OC [Compound 170] | – | 4.39 µM | 156%
COc1ccc(C(=O)NCCCCC(=O)N2CCN(c3cccc(Cl)c3Cl)CC2)cc1OC [Compound 171, N-(5-(4-(2,3-dichlorophenyl)piperazin-1-yl)-5-oxopentyl)-3,4-dimethoxybenzamide] | – | – | 127%
COC(=O)c1cc(OC)c(OC)cc1C(=O)N1CCN(c2cccc(Cl)c2Cl)CC1 [Compound 173, methyl 2-(4-(2,3-dichlorophenyl)piperazine-1-carbonyl)-4,5-dimethoxybenzoate] | – | – | 132%
O=C(CCOCc1ccc(N2CCCCC2)nc1)NCCc1cccc2ccc(O)cc12 [Compound 178, N-(2-(7-hydroxynaphthalen-1-yl)ethyl)-3-((6-(piperidin-1-yl)pyridin-3-yl)methoxy)propanamide] | – | – | 120%
